{"source": "patent US20190262363A1", "about": "“ANTAGONIST OF MINERALOCORTICOID RECEPTOR FOR THE TREATMENT OF OSTEOARTHRITIS” (INSERM (INSTITUT NATIONAL DE LA SANTÉ ET DE LA RECHERCHE …, priority 2016, published 2019)", "tested_on": "knee joints of SHHF^cp/cp rats (metabolic syndrome associated osteoarthritis model) and lean SHHF^+/+ rats", "test": "Chronic eplerenone treatment in lean SHHF+/+ and MetS SHHFcp/cp rats; knee joint histology and OARSI scoring", "type": "in vivo, rat", "description": "In this study were used lean SHHF^+/+ (spontaneously hypertensive heart failure) rats as controls and obese SHHF^cp/cp rats, which have been characterized as a good model for metabolic syndrome (MetS). […] The absence of eple means that the considered rats are part of a control placebo group.\nAnimals of both lean SHHF^+/+ and MetS SHHF^cp/cp genotypes were divided randomly into two groups. Group I (n=4 for SHHF^+/+ and n=4 for SHHF^cp/cp) was given placebo and group II (n=4 for SHHF^+/+ and n=9 for SHHF^cp/cp) was given 100 mg.kg-1.day-1 of the selective MRA eplerenone (pure active molecule provided by Pfizer) in drinking water from 1.5 months to 12.5 months of age. The knee joints of 1.5- and 12.5- month-old specimens of each group (untreated SHHF^+/+ and SHHF^cp/cp and their treated counterparts) were fixed in 4% paraformaldehyde, decalcified in EDTA-phosphate buffered solution and then embedded in paraffin. […] thick adjacent sections were stained with Toluidine Blue, Hematoxylin and Eosin or submitted to collagen II immunohistochemistry in order to investigate cartilage destruction, osteophyte formation and lesions of the synovial tissue, respectively. The corresponding scores following OARSI guidelines were done blindly by independent researchers.", "note": "“Also recorded” adds a separate entry of the source.", "data": [{"compound": "COC(=O)[C@@H]1CC2=CC(=O)CC[C@]2(C)[C@@]23O[C@@H]2C[C@@]2(C)[C@@H](CC[C@@]24CCC(=O)O4)[C@H]13", "note": "[eplerenone, Pregn-4-ene-7,21-dicarboxylic acid, 9,11-epoxy-17-hydroxy-3-oxo-,y-lactone, methyl ester, (7α,11α,17β)]", "values": [{"measurement": "Cartilage histology (toluidine blue): fibrillations and loss of proteoglycans", "setting": "12.5SHHF^cp/cp Eple knee joints vs untreated 12.5SHHF^cp/cp, FIG. 1D vs. 1C", "result": "markedly reduced fibrillations and loss of proteoglycans"}, {"measurement": "Osteophytes, collagen II immunostaining", "setting": "12.5SHHF^cp/cp Eple knee joints vs untreated 12.5SHHF^cp/cp, FIG. 2D vs. 2C", "result": "alleviated osteophytes"}, {"measurement": "Synovial tissue histology (Hematoxylin & Eosin): inflammation and fibrosis", "setting": "12.5SHHF^cp/cp Eple knee joints vs untreated 12.5SHHF^cp/cp, FIG. 3D vs. 3C", "result": "attenuated inflammation and fibrosis of the synovial tissue"}, {"measurement": "OARSI scoring of the joint cartilage degradation (cartilage alterations)", "setting": "12.5SHHF^cp/cp Eple rats vs placebo 12.5SHHF^cp/cp, 100 mg.kg-1.day-1 in drinking water from 1.5 to 12.5 months of age, FIG. 1E", "result": "prevents the degradation of joint cartilage; also recorded: drastically decreases the cartilage alterations"}, {"measurement": "OARSI scoring of osteophyte (osteophyte formation)", "setting": "12.5SHHF^cp/cp Eple rats vs placebo 12.5SHHF^cp/cp, 100 mg.kg-1.day-1 in drinking water from 1.5 to 12.5 months of age, FIG. 2E", "result": "reduces osteophyte formation; also recorded: significantly hampers osteophyte formation"}, {"measurement": "OARSI scoring of the joint inflammation (synovial inflammatory and fibrotic events)", "setting": "12.5SHHF^cp/cp Eple rats vs placebo 12.5SHHF^cp/cp, 100 mg.kg-1.day-1 in drinking water from 1.5 to 12.5 months of age, FIG. 3E", "result": "reduces the joint inflammation; also recorded: markedly reduces the level of inflammatory and fibrotic events"}, {"measurement": "Knee joint phenotype", "setting": "MetS 12.5SHHF^cp/cp Eple rats treated from 1.5 months onward, compared to placebo 12.5SHHF^cp/cp", "result": "phenotypes very similar to those of their ^12.5SHHF^+/+ counterparts"}, {"measurement": "Knee joint phenotype", "setting": "lean 12.5SHHF^+/+ eple rats, 100 mg.kg-1.day-1 in drinking water from 1.5 to 12.5 months of age", "result": "displayed normal phenotype"}]}]}
